The values that follow come from US10300066B2, “Polyfluorinated compounds acting as bruton tyrosine kinase inhibitors” (ZHEJIANG DTRM BIOPHARMA CO. LTD., priority 2014, dated 2019).

A short description of series [1]: 28-day toxicokinetic (TK) study in rats. Type of series: in vivo, rat. The note with it: for AUC: rat, in vivo, read-out: AUC (area under the curve).
A short description of series [2]: 28-day toxicokinetic (TK) study in dogs. It is filed as in vivo, dog. The note with it: for AUC: dog, in vivo, 15 mg/kg.
The nature of series [3]: Toxicity and TK studies, 28-day rat and dog. The note with it: 28-day rat and dog studies. The text has this: Toxicity and toxicokinetic (TK) studies of the compounds can be performed by well known methods.
[4] abbreviates: 100 mg/kg, Study Day 28, Female.
Setting [5] is: 45 mg/kg/day, Study Day 1, Female.

Usually Cmax stands for the highest concentration seen after dosing. In general, AUC refers to concentration integrated over time. As to `C=CC(=O)N1CC[C@@H](n2nc(-c3ccc(Oc4c(F)c(F)cc(F)c4F)cc3F)c3c(N)ncnc32)C1` [Compound 45, 1-((R)-3-(4-amino-3-(2-fluoro-4-(2,3,5,6-tetrafluorophenoxy)phenyl)-1H-pyrazolo[3,4-d]pyrimidin-1-yl)pyrrolidin-1-yl)prop-2-en-1-one], the “AUC compared to ibrutinib” value in series [1] and in series [2] was “significantly higher” each time. Further, the Cmax in series [1] (40 mg/kg, Study Day 1, Female) turned out to be 2660 ng/mL; in series [1] (40 mg/kg, Study Day 28, Male), 2090 ng/mL; in series [1] (setting [4]) it was 3830 ng/mL; in series [1] (200 mg/kg, Study Day 28, Male) it was 4540 ng/mL; in series [2] (setting [5]), 1220 ± 431 ng/mL; in series [2] (150 mg/kg/day, Study Day 1, Male), 2460 ± 858 ng/mL. Further, the AUC0-24 h came out at 29600 ng·h/mL in series [1] (setting [4]); 30300 ng·h/mL in series [1] (100 mg/kg, Study Day 28, Male); 6220 ± 3000 ng·h/mL in series [2] (setting [5]). The AUC is 17300 ng·h/mL in series [1] (40 mg/kg, female); 13700 ng·h/mL in series [1] (40 mg/kg, male); 2930 ng·h/mL in series [2] (female); 3550 ng·h/mL in series [2] (male). Also, the “Bioavailability compared to ibrutinib” value in series [3] was “superior bioavailability”. In series [3], the “Drug exposure, Day 1 versus Day 28” value was “no significant difference”. Further, in series [3], the “Drug exposure, male versus female” value is “no significant difference”. For the same compound, the “Pharmacokinetics compared to ibrutinib” value in series [3] was “excellent pharmacokinetics”. The “Toxicity compared to ibrutinib” value in series [3] is listed as “low toxicity”.
